Here are results for 13 molecules from ChEMBL document CHEMBL3046128, “Sustainable synthesis of flavonoid derivatives, QSAR study and insecticidal activity against the fall armyworm, Spodoptera frugiperda (Lep.: Noctuidae)” (2010).

The experiment has as its system Spodoptera frugiperda. The experiment is described as follows: Insecticidal activity against first-instar larval-stage of Spodoptera frugiperda (fall armyworm) strain corn in compound-pretreated corn leaves assessed as mortality rate at 2000 mg/kg. Format: functional.

As for `O=c1cc(-c2ccccc2)oc2ccc(Br)cc12` [6-BROMOFLAVONE], the LT50 is 43.86 h and the log10LT50 is 1.642.

Consider `O=c1cc(-c2ccccc2)oc2ccc(Cl)cc12` [6-CHLOROFLAVONE], for which the LT50 amounted to 53.36 h and the log10LT50 is reported as 1.727.

With `Cc1ccc2oc(-c3ccccc3)cc(=O)c2c1` [6-METHYLFLAVONE], the LT50 was 93 h and the log10LT50 was found to be 1.968.

As for `O=c1cc(-c2ccccc2)oc2cc(Br)ccc12` [7-BROMOFLAVONE], the LT50 is 89.73 h and the log10LT50 is given as 1.953.

As to `O=c1cc(-c2ccccc2)oc2cc(Cl)ccc12` [7-CHLOROFLAVONE], the LT50 stood at 29.33 h and the log10LT50 turned out to be 1.467.

For the molecule `O=c1cc(-c2ccccc2)oc2cc(F)ccc12` [7-FLUOROFLAVONE], the LT50 came out at 63.76 h and the log10LT50 is 1.805.

For `O=c1cc(-c2ccccc2)oc2cc(O)ccc12` [7-HYDROXYFLAVONE], the LT50 came out at 106.94 h and the log10LT50 is 2.029.

As for `COc1ccc2c(=O)cc(-c3ccccc3)oc2c1` [7-METHOXYFLAVONE], the LT50 amounted to 114.38 h and the log10LT50 was found to be 2.058.

With `Cc1ccc2c(=O)cc(-c3ccccc3)oc2c1` [7-METHYLFLAVONE], the LT50 came out at 105.46 h and the log10LT50 amounted to 2.023.

For the molecule `O=c1ccoc2ccccc12` [CHROMONE], the LT50 came to 55.42 h and the log10LT50 is 1.744.

With `O=C1CC(c2ccccc2)Oc2ccccc21` (stereo not given) [FLAVANONE], the log10LT50 turned out to be 1.656.

For `O=c1cc(-c2ccccc2)oc2ccccc12` [FLAVONE], the LT50 was 51.19 h and the log10LT50 is on record as 1.709.

Regarding `O=c1c2ccccc2oc2ccccc12` [XANTHONE], the LT50 was found to be 53.78 h and the log10LT50 stood at 1.731.
